Results reported in article PMC6392429 (ACS infectious diseases, 2018).
“And” between values parts separate entries of the source, which are not always exact repeats. Equal values may be shown once. Read-outs that look alike come from different tables or passages of the source.

Key:
[1] = target: T1, DENV2 sE2 (Dengue virus type 2, UniProt P14340); details: assay optimisation, Figure S1
[2] = test system: DENV2 NGC; test: Viral infectivity assay; type: cell-based, dengue virus serotype 2 New Guinea C; details: negative control compound
[3] = target: AmpC β-lactamase (Escherichia coli, UniProt P00811)
Sequence of AmpC β-lactamase (P00811 20-377): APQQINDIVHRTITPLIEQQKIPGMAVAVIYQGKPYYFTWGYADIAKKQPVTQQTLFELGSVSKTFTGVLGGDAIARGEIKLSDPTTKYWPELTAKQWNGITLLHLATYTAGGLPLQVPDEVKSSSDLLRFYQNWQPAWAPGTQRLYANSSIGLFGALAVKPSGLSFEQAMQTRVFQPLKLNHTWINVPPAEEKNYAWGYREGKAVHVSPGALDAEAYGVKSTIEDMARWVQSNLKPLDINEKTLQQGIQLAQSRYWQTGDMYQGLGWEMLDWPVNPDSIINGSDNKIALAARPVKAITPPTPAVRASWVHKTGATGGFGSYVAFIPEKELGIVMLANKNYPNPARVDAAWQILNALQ

[4] = Microsome stability in vitro; type: in vitro ADME; details: mouse microsomes in vitro
[5] = target: T1, DENV2 sE2; details: biolayer interferometry
[6] = test system: DENV2 NGC; test: Plaque reduction assay, DENV2; type: cell-based, dengue virus serotype 2; details: read-out: PRNT50 DENV2
[7] = test system: ZIKV PF-251013–18; test: Plaque reduction assay, ZIKV; details: read-out: PRNT50 ZIKV
[8] = test system: DENV4 TVP360; test: Plaque reduction assay, DENV4; type: cell-based, dengue virus serotype 4; details: read-out: PRNT50 DENV4
[9] = Dynamic light scattering, particle size; type: physicochemical
[10] = test system: DENV3 THD3; test: Plaque reduction assay, DENV3; type: cell-based, dengue virus serotype 3; details: read-out: PRNT50 DENV3
[11] = target: T2, malate dehydrogenase (MDH) (Sus scrofa, UniProt P00346); test: Malate dehydrogenase; type: biochemical
T2 sequence (P00346 25-338): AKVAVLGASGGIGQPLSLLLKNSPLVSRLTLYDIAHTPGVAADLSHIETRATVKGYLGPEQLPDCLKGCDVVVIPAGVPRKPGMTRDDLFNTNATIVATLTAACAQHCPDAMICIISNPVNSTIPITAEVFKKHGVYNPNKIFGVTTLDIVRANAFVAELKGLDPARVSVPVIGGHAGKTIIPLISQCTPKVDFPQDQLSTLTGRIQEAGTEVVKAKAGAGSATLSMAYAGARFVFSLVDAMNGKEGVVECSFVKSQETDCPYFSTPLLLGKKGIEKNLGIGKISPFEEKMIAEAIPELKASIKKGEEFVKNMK

[12] = test system: DENV1 WP74; test: Plaque reduction assay, DENV1; type: cell-based, dengue virus serotype 1; details: read-out: PRNT50 DENV1
[13] = test system: E-mediated fusion of DENV2 virions with liposomes; details: for Inhibition of E-mediated fusion: close to IC90
[14] = test system: BHK-21 cells; type: cell-based
[15] = test system: VSV-eGFP; type: cell-based, vesicular stomatitis virus
[16] = read-out: IC50 AmpC no TritonX, no Triton X-100
[17] = read-out: IC50 AmpC with TritonX, with 0.01% Triton X-100
[18] = read-out: IC50 MDH no TritonX, no Triton X-100
[19] = read-out: IC50 MDH with TritonX, with 0.01% Triton X-100

For `CN1CCN(c2ccc(Nc3cc(Oc4ccccc4)ncn3)cc2)CC1` [JW-068, N−[4-(4-Methylpiperazin-1-yl)phenyl]-6-phenoxypyrimidin-4-amine], the “Competition with GNF2-biotin for binding to sE2” value [1] was “absence of competition” and the “Inhibition of DENV2 infection” value [2] was “does not inhibit DENV2 infection”.
With `COc1cc(C(=O)NS(=O)(=O)c2ccccc2C)ccc1Cc1cn(C)c2ccc(NC(=O)OC3CCCC3)cc12` [S1633] the IC50 [3, 16] was 36.6 µM, the IC50 [3, 17] was > 100 µM and the “T1/2 (Microsome stability)” value [4] was 37.7 min. For the same molecule, the Kd [5] was 5.2 ± 2.1 µM, the IC50 ([6]; BHK-21 cells, scored) was 1 to 10 µM and the IC50 ([7]; Vero cells, scored) was > 10 µM. The IC50 ([8]; BHK-21 cells, scored) was 1 to 10 µM, the “Particle size at 40 μM with Tween20” value [9] was 9.2 nm and the “Particle size at 40 μM without Tween20” value [9] was 823 nm. For the same molecule, the IC50 ([10]; BHK-21 cells, scored) was > 10 µM, the IC50 [11, 18] was 48.2 µM and the IC50 [11, 19] was > 100 µM. The IC50 ([12]; BHK-21 cells, scored) was 1 to 10 µM, the “Inhibition of E-mediated fusion” value ([13]; 10 μM) was “inhibit E-mediated fusion” and the CC50 [14] was 50 ± 3 µM.
For `Cc1cc(C(C#N)c2ccc(Cl)cc2)c(Cl)cc1NC(=O)c1cc(I)cc(I)c1O` (stereo not drawn) [S4105], the IC50 [3, 16] was 19.5 µM, the IC50 [3, 17] was > 100 µM and the “T1/2 (Microsome stability)” value [4] was > 120 min. The “Inhibition % vs. VSV-eGFP” value [15] was 64% and 60%, the Kd [5] was 0.9 ± 0.3 µM and the IC50 ([6]; BHK-21 cells, scored) was < 1 µM. For the same molecule, the IC50 ([6]; bound stated) was ≤ 1 µM, the IC50 ([7]; Vero cells, scored) was < 1 µM and the IC50 ([7]; bound stated) was ≤ 1 µM. The IC50 ([8]; BHK-21 cells, scored) was < 1 µM, the IC50 ([8]; bound stated) was ≤ 1 µM and the “Particle size at 40 μM with Tween20” value [9] was 13.1 nm. For the same molecule, the “Particle size at 40 μM without Tween20” value [9] was 82 nm, the IC50 ([10]; BHK-21 cells, scored) was 1 to 10 µM and the IC50 ([10]; bound stated) was ≤ 10 µM. The IC50 [11, 18] was 0.3 µM, the IC50 [11, 19] was > 100 µM and the IC50 ([12]; BHK-21 cells, scored) was < 1 µM. The IC50 ([12]; bound stated) was ≤ 1 µM, the “Inhibition of viral fusion (protection of core from trypsin digestion)” value ([13]; at 5, 1, and 0.5 μM, Western blot) was “inhibit viral fusion in a concentration-dependent manner” and the CC50 [14] was 50 ± 15 µM.
With `CN(CC(=O)N(Cc1ccc(C2CCCCC2)cc1)c1ccc(C(=O)O)cc1)S(=O)(=O)c1c(F)c(F)c(F)c(F)c1F` [S7337] the IC50 [3, 16] was > 100 µM, the IC50 [3, 17] was > 100 µM and the “T1/2 (Microsome stability)” value [4] was 3.2 min. For the same molecule, the Kd [5] was 1.3 ± 0.5 µM, the IC50 ([6]; BHK-21 cells, scored) was < 1 µM and the IC50 ([6]; bound stated) was ≤ 1 µM. The IC50 ([7]; Vero cells, scored) was 1 to 10 µM, the IC50 ([7]; bound stated) was ≤ 10 µM and the IC50 ([8]; BHK-21 cells, scored) was < 1 µM. The IC50 ([8]; bound stated) was ≤ 1 µM, the “Particle size at 40 μM with Tween20” value [9] was 8.2 nm and the “Particle size at 40 μM without Tween20” value [9] was 144 nm. The IC50 ([10]; bound stated) was ≤ 10 µM, the IC50 [11, 18] was 86.4 µM and the IC50 [11, 19] was > 100 µM. For the same molecule, the IC50 ([12]; BHK-21 cells, scored) was < 1 µM, the IC50 ([12]; bound stated) was ≤ 1 µM and the “Inhibition of E-mediated fusion” value ([13]; 3 μM) was “inhibit E-mediated fusion”. It also gave a CC50 [14] of 13 ± 5 µM.
